According to ChEMBL document CHEMBL1201862, “PubChem BioAssay data set” (2004):
Calls of active or inactive are those of the source.

Experiments:
[1] = target: T1, Short transient receptor potential channel 4 (Mus musculus, UniProt Q9QUQ5); experiment: calcium entry via TRPC4 opening agents – cell-based, HEK293 TRPC4/mu-opioid, Fluo-4 calcium, dose response (AID 434937); assay type: functional
T1 sequence (Q9QUQ5 whole entry): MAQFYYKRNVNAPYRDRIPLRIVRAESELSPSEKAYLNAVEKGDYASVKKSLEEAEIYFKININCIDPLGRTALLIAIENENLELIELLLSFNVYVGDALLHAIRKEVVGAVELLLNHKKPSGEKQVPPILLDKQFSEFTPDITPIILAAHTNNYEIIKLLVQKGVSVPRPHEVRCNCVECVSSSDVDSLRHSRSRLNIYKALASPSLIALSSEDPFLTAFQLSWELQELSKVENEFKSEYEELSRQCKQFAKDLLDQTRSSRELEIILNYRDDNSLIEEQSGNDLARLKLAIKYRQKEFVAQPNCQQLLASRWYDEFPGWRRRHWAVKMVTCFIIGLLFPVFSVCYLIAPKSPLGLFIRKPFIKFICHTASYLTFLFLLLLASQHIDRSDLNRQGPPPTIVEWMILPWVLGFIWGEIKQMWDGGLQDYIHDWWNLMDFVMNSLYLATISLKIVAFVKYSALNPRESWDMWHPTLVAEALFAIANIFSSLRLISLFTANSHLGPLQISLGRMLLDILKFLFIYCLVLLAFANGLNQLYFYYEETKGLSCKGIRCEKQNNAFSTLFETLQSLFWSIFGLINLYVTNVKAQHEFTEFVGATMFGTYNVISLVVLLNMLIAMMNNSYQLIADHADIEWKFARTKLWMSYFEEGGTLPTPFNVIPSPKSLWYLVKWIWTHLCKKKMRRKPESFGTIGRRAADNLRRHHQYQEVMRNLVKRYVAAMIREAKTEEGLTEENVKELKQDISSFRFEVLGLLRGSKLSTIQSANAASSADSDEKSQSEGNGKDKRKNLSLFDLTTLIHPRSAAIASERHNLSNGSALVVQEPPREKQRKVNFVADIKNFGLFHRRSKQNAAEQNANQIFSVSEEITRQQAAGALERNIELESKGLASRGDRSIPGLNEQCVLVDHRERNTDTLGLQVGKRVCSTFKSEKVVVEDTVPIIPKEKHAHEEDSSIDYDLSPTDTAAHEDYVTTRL

[2] = target: 5-hydroxytryptamine receptor 5A (Homo sapiens, UniProt P47898); experiment: Counterscreen for agonists of OPRM1-OPRD1 heterodimerization: luminescence-based cell-based high throughput dose response assay to identify agonists of 5-hydroxytryptamine (serotonin) 5A receptor (HTR5A). [Related pubchem assays (depositor defined):AID504326, AID504355, AID504692, AID504904, AID504905]; assay type: functional
Mu-type opioid receptor = Mu-type opioid receptor (Homo sapiens, UniProt P35372); experiment: (§1) Counterscreen for agonists of heterodimerization of the mu 1 (OPRM1) and delta 1 (OPRD1) opioid receptors: Luminescence-based cell-based high throughput dose response assay to identify agonists of OPRM1 homodimerization.; assay type: functional
[3] = target: Delta-type opioid receptor (Homo sapiens, UniProt P41143); experiment: as §1, with “of OPRD1” for “of OPRM1”, “homodimerization. [Related pubchem assays (depositor defined):AID504326, AID504355, AID504692, AID504904, AID504905]” for “homodimerization.”; assay type: functional
[4] = target: T1, Short transient receptor potential channel 4; experiment: potency of mouse TRPC4 calcium flux blockers – cell-based, HEK293 TRPC4/mu-opioid, DAMGO stimulus, Fluo-4, dose response (AID 492994); assay type: functional
Beta-galactosidase = Beta-galactosidase (Escherichia coli, UniProt Q8VNN2); experiment: PubChem AID 485352; assay type: functional
[5] = target: T2, Type-1 angiotensin II receptor (Homo sapiens, UniProt P30556); experiment: antagonism of angiotensin II type 1 receptor – cell-based, uHTS hits, selectivity assay for APJ receptor antagonist project, dose response (AID 463214); assay type: functional;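 also: antagonist potency against angiotensin II stimulated AT1 response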
T2 sequence (P30556 whole entry): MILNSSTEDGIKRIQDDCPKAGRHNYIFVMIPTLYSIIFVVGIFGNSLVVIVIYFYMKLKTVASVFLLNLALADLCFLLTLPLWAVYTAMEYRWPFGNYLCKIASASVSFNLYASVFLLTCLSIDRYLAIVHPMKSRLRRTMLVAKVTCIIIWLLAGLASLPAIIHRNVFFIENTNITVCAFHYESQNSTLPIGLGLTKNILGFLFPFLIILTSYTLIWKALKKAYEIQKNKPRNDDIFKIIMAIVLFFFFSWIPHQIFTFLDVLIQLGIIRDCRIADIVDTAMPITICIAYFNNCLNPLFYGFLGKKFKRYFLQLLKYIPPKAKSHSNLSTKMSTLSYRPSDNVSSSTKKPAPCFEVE

HEK293 = experiment: cells; assay type: functional, cell-based; details: Homo sapiens
[6] = target: T3, Nuclear receptor subfamily 0 group B member 1 (Homo sapiens, UniProt P51843); experiment: Luminescence-based cell-based high throughput dose response assay for inhibitors of the orphan nuclear receptor subfamily 0, group B, member 1 (DAX1; NR0B1). [Related pubchem assays (depositor defined):AID504766, AID504790]; assay type: functional
T3 sequence (P51843 whole entry): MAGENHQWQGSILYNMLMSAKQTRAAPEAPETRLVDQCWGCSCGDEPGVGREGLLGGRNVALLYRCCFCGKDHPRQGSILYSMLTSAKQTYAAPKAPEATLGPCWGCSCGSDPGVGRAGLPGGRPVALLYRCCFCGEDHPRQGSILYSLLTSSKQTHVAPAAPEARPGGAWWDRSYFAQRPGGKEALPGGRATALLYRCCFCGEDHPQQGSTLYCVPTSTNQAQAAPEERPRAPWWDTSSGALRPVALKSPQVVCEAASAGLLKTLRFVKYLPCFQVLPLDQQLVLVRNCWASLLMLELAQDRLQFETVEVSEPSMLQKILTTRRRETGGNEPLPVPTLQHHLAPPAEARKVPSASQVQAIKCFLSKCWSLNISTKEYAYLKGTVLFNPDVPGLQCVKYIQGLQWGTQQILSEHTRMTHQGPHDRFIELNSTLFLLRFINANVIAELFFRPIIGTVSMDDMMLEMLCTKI

Vero [7] = experiment: viability of Vero cells under compound – cytotoxicity control for flavivirus capping enzyme inhibitors (AID 588742); assay type: functional; details: Chlorocebus sabaeus
[8] = target: Glucose-6-phosphate 1-dehydrogenase (Homo sapiens, UniProt P11413); experiment: inhibition of Homo sapiens G6PD, dose series – biochemical, fluorescence, selectivity assay for P. falciparum G6PD inhibitor project, dose response (AID 504792); assay type: functional
Vero [9] = experiment: cells; assay type: functional; details: Chlorocebus sabaeus
[10] = target: Heat shock protein HSP 90-alpha (Homo sapiens, UniProt P07900); assay type: functional, organism-based
Beta-arrestin-1 = Beta-arrestin-1 (Homo sapiens, UniProt P49407); experiment: beta-arrestin/AP2 interaction blockers, potency – biochemical, cherry pick 1, beta2-adaptin appendage, flow cytometry, dose response (AID 588783); assay type: functional
Genome polyprotein = Genome polyprotein (dengue virus type 2, UniProt P29990); experiment: flavivirus cap methylation enzyme inhibition – biochemical, confirmation dose response, primary screen (AID 588689); assay type: functional
Sequence of Genome polyprotein (P29990 2492-3391 limits assumed): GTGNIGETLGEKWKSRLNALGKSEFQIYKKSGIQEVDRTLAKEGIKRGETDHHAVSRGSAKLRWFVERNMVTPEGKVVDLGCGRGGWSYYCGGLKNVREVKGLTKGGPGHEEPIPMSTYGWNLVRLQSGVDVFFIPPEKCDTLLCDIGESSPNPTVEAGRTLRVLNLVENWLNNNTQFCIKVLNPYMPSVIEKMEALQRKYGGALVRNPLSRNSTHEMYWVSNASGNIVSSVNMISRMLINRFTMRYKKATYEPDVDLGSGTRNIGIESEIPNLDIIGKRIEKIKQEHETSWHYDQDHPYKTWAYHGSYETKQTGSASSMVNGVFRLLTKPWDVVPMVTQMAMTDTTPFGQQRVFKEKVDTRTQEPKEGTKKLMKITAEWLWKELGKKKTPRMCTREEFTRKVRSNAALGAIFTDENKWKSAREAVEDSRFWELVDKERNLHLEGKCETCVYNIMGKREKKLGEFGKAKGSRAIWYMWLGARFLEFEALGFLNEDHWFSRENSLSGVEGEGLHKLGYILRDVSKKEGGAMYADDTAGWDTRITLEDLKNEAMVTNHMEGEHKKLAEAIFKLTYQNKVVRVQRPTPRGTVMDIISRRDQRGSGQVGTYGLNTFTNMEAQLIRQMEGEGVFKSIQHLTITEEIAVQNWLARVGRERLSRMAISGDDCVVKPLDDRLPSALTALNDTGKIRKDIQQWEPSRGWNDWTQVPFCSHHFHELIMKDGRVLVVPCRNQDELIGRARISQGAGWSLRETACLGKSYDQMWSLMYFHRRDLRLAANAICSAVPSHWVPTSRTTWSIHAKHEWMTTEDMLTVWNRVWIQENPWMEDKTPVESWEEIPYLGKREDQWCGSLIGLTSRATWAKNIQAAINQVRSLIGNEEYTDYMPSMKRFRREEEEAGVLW

Sequence of Beta-galactosidase (Q8VNN2 whole entry): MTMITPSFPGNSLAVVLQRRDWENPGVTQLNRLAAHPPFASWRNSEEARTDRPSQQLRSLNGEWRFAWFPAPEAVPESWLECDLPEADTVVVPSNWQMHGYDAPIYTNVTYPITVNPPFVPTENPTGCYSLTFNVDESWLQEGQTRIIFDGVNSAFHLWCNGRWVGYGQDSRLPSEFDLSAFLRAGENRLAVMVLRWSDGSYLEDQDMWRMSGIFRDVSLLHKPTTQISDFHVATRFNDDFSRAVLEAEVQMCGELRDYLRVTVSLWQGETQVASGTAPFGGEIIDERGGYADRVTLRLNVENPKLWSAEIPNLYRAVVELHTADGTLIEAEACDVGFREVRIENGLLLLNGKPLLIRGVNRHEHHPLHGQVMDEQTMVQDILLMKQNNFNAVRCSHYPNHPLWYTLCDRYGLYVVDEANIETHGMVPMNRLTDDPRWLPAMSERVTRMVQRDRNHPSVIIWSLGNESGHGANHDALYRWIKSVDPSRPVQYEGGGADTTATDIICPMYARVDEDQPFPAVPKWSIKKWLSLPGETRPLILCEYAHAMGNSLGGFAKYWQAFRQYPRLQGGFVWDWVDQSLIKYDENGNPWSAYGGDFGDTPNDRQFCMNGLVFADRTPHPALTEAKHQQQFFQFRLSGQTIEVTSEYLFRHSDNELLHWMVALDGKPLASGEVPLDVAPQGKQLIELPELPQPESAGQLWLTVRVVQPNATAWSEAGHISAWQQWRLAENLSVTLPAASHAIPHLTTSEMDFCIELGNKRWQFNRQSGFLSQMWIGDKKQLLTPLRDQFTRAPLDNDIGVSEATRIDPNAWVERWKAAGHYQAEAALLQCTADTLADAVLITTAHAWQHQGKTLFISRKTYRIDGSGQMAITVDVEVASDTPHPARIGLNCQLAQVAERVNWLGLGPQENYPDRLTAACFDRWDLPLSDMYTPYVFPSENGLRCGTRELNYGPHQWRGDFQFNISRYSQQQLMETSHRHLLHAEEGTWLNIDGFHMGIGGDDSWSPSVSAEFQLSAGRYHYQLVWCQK
Sequence of Glucose-6-phosphate 1-dehydrogenase (P11413 whole entry): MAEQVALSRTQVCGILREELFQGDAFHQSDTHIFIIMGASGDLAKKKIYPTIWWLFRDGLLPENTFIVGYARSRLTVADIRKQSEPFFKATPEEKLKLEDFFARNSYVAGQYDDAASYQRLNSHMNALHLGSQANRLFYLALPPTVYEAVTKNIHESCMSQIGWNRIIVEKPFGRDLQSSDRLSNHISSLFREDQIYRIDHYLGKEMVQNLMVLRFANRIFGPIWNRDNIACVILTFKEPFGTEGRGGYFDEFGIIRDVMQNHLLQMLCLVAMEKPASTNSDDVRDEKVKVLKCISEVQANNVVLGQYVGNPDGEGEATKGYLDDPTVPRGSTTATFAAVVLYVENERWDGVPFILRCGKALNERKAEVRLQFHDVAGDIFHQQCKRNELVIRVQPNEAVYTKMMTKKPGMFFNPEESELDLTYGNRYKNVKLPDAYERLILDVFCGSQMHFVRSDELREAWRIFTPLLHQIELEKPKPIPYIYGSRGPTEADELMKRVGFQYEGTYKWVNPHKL
Sequence of Delta-type opioid receptor (P41143 whole entry): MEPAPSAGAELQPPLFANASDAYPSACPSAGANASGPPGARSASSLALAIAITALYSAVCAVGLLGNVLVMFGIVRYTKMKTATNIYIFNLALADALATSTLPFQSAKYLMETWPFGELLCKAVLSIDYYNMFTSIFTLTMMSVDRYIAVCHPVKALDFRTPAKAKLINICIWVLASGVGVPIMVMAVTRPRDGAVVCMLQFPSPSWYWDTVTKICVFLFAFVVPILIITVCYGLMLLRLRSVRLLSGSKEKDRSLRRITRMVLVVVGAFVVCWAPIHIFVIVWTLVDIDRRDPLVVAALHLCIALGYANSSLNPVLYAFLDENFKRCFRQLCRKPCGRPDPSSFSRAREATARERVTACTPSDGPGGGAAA
Sequence of 5-hydroxytryptamine receptor 5A (P47898 whole entry): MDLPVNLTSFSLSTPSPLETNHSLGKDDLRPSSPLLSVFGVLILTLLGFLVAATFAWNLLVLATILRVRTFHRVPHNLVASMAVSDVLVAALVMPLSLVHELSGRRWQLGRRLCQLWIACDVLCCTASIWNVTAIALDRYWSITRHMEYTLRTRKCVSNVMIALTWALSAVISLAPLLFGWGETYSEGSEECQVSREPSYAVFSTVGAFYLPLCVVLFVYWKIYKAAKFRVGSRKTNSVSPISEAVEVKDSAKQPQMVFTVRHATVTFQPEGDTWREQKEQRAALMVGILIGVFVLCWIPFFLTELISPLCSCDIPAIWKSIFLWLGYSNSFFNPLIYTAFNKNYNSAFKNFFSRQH
Sequence of Mu-type opioid receptor (P35372 whole entry): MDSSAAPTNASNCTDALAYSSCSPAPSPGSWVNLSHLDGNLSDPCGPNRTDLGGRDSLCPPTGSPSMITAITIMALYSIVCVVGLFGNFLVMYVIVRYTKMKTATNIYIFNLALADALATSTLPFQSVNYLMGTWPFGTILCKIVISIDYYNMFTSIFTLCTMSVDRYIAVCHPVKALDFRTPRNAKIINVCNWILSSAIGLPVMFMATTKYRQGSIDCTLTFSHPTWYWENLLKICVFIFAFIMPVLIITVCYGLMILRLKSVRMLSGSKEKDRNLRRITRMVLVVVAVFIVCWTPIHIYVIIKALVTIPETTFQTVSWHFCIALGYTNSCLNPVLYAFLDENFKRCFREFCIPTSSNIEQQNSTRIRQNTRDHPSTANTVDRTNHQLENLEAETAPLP
Sequence of Beta-arrestin-1 (P49407 whole entry): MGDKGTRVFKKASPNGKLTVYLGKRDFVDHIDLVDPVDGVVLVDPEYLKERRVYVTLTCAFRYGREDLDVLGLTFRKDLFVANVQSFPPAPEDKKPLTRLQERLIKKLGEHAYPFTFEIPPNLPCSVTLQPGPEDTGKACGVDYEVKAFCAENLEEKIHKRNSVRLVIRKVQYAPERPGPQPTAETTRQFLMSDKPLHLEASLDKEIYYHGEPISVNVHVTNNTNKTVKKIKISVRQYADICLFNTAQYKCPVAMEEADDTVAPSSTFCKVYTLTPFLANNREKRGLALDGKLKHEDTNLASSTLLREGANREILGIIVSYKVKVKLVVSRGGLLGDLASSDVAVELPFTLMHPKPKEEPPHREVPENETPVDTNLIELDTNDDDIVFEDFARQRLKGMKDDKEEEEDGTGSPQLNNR

## COc1ccc(C(CNC(=O)C(Cc2ccccc2)NC(N)=O)N(C)C)cc1 (stereo not given)
[1]
  EC50: 0.473 µM (active)
[2]
  EC50: > 92.5 µM (inactive)
Mu-type opioid receptor
  EC50: > 92.5 µM (inactive)
[3]
  EC50: > 92.5 µM (inactive)

## Cc1cc(N2CCN(c3ncccn3)CC2)nc2ccccc12
[4]
  IC50: 469 µM (active)

## CC1CCCN(CC(=O)c2ccc(Cl)c(Cl)c2)C1 (stereo not given)
Beta-galactosidase
  EC50: 30.8 µM (active)
[5]
  IC50: 4.76 µM (active)

## O=C(O)Cc1sc(Nc2ccccc2)nc1-c1cccs1
HEK293
  IC50: > 67.5 µM (inactive)
[6]
  IC50: > 67.5 µM (inactive)

## Cn1c2ccccc2c2ccc3c(c21)C(=O)C=CC3=O
Vero [7]
  CC50: 29.2 µM (active)
[8]
  IC50: > 80 µM (inactive)
Vero [9]
  CC50: 12.6 µM (active)
[10]
  AC50: 8.99 µM (active)
Beta-arrestin-1
  IC50: 4.59 µM (active)
Genome polyprotein
  IC50: 15.8 µM (active)
